We go through 20 compounds from patent US6514989B1, “Aromatic and heteroaromatic substituted 1,2,4-triazolo pyridine derivatives” (Hoffmann-La Roche Inc., priority 2001, dated 2003).

As a reminder, the Ki is a measure of affinity in units of concentration, obtained from inhibition or displacement.

Test [1] has as its target T1, human adenosine A1 receptor (Homo sapiens, UniProt P30542).
T1 construct: expressed in transfected cells; host or cells: CHO cells, semliki forest virus expression system; membrane preparation
T1 sequence (P30542 1-326): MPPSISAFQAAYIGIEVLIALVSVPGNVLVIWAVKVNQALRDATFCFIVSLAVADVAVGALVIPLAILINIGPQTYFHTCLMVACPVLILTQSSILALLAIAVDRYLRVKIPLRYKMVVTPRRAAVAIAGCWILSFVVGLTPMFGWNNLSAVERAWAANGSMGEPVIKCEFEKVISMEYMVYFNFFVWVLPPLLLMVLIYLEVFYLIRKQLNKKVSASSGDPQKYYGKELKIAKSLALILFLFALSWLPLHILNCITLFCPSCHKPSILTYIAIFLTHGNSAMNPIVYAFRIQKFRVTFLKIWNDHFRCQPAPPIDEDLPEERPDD
Nature of the test: Human adenosine A1 receptor radioligand binding assay ([3H]-DPCPX, SPA, CHO cell membranes). Particulars: recombinant human A1 receptor expressed in CHO cells; [3H]-DPCPX 0.6 nM; Ki from IC50 by Cheng-Prussoff equation; read-out: hA1 Ki. As for the experimental part:
Human Adenosine A^1 Receptor
The gene encoding human adenosinie A1 receptor was recombinantly introduced and expressed in chinese hamster ovary (CHO) cells using the semliki forest virus expression system. Cells were harvested, washed twice by centrifugation, homogenized and again washed by centrifugation. The final washed membrane pellet was suspended in a Tris (50 mM) buffer containing 120 mM NaCl, 5 mM KCl, 2 mM CaCl2 and 10 mM MgCl2 (pH 7.4) (buffer A). The [^3H]-DPCPX (([propyl-3H]8-cyclopentyl-1,3-dipropyxanthine); 0.6 nM) binding assay was carried out in 96-well plates in the presence of 2.5 μg of membrane protein, 0.5 mg of Ysi-poly-1-lysine SPA beads and 0.1 U adenosine deaminase in a final volume of 200 μl of buffer A. Non-specific binding was defined using xanthine amine congener (XAC; 2 μM). Compounds were tested at 10 concentrations from 10 μM-0.3 nM. All assays were conducted in duplicate and repeated at least two times. Assay plates were incubated for 1 hour at room temperature before centrifugation and then bound ligand determined using a Packard Topcount scintillation counter. IC50 values were calculated using a non-linear curve fitting program and Ki values calculated using the Cheng-Prussoff equation.
(§1) In accordance with the invention, it has been shown that compounds of formula I have a high affinity toward the A2A receptor. In Table I below specific values of prepared compounds are described, Values of KiHA2A and KiHA1 are shown in Table I for compounds of formula 1. A low Ki value is indicative of a particular compound's high affinity toward a particular receptor and conversely a higher Ki value is indicative of a lower affinity for that compound toward a particular receptor. […] Generally speaking, compounds that have a higher HA1/HA2A ratio are able to give a substantially complete blockade of the HA2A receptor without substantially affecting the A1 receptor.

Test [2] deals with T2, human adenosine A2a receptor (Homo sapiens, UniProt P29274).
T2 construct: expressed in transfected cells; host or cells: CHO cells, semliki forest virus expression system; membrane preparation
Nature of the test: Human adenosine A2a receptor radioligand binding assay ([125I]-AB-MECA, CHO cell membranes). Particulars: for Selectivity A1/A2a: ratio obtained by dividing KiHA1 by KiHA2A; for Ki: recombinant human A2a receptor expressed in CHO cells, Ki from IC50 by Cheng-Prussoff equation, read-out: hA2a Ki. As for the experimental part: Human Adenosine A2a Receptor
The gene encoding human adenosine A2a receptor was recombinantly introduced and expressed in chinese hamster ovary (CHO) cells using the semliki forest virus expression system. Cells were harvested, washed twice by centrifugation, homogenized and again washed by centrifugation. The final washed membrane pellet was suspended in a Tris (50 mM) buffer containing 120 mM NaCl, 5 mM KCl, 2 mM CaCl2 and 10 mM MgCl2 (pH 7.4) (buffer A). The [^125I]-AB-MECA ([N(6)-(4-amino-3-iodobenzyl)-5′-N-methylcarbamoyl-adenosine]; 0.05 nM) binding assay was carried out in 96-well a plates in the presence of 20 μg of membrane protein and 0.1 U adenosine deaminase in a final volume of […] of buffer A. Non-specific binding was defined using xanthine amine congener (XAC; 2 μM). Compounds were tested at 10 concentrations from 10 μM-0.3 nM. All assays were conducted in duplicate and repeated at least two times. Assay plates were incubated for 1 hour at room temperature before filtration through Whatman Unifilter GF/C 96-well filter plates (preincubated with 0.3% polyethyleneimine). Filters were washed 3 times with 0.3 ml of cold (4° C.) Tris (50 mM)—NaC […]
[…] 1 (120 mM) buffer (pH 7.4). Microscint 40 scintillation fluid (50 μl) was added to each well and the wells sealed. After gentle shaking for 20 min, plates were counted on a Packard Topcount scintillation counter. IC50 values were calculated using a non-linear curve fitting program and Ki values calculated using the Cheng-Prussoff equation.
as §1

T2 sequence (P29274 whole entry): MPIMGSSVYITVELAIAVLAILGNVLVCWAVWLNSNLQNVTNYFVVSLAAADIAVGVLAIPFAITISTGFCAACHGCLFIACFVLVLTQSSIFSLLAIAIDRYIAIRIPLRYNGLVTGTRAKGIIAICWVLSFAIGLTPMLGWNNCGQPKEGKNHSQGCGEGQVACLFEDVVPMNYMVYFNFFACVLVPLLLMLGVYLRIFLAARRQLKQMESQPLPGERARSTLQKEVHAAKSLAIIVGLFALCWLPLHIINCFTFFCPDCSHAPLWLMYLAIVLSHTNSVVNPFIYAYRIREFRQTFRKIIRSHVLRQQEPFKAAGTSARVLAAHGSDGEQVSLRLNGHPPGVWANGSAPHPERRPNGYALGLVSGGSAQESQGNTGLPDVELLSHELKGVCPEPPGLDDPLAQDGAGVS

In the case of `COc1ccc(C(=O)Nc2nc3c(OC)ccc(-c4ccccc4)n3n2)cc1` [Example 7, 4-Methoxy-N-(8-methoxy-5-phenyl-[1,2,4]triazolo[1,5-a]pyridin-2-yl)-benzamide], the Ki in test [1] worked out at 4.71 µM. In addition, in test [2], the “Selectivity A1/A2a” value is recorded as 20.8 and the Ki amounted to 0.227 µM.
For the compound `COc1ccc(-c2ccccc2)n2nc(NC(=O)c3cccc(Br)c3)nc12` [Example 8, 3-Bromo-N-(8-methoxy-5-phenyl-[1,2,4]triazolo[1,5-a]pyridin-2-yl)-benzamide], in test [1], the Ki came out at 2.88 µM. In addition, in test [2], the “Selectivity A1/A2a” value was 21.1 and the Ki turned out to be 0.136 µM.
`COc1ccc(-c2ccccc2)n2nc(NC(=O)c3ccc(Br)cc3)nc12` [Example 9, 4-Bromo-N-(8-methoxy-5-phenyl-[1,2,4]triazolo[1,5-a]pyridin-2-yl)-benzamide]: in test [1], the Ki came to 2.29 µM. In test [2], the “Selectivity A1/A2a” value came to 22.4 and the Ki worked out at 0.102 µM.
`CCc1ccc(C(=O)Nc2nc3c(OC)ccc(-c4ccccc4)n3n2)cc1` [Example 10, 4-Ethyl-N-(8-methoxy-5-phenyl-[1,2,4]triazolo[1,5-a]pyridin-2-yl)-benzamide]: the Ki in test [1] turned out to be 2 µM. In addition, in test [2], the “Selectivity A1/A2a” value is reported as 11.5 and the inhibitory constant (Ki) is 0.173 µM.
As for `COc1cccc(C(=O)Nc2nc3c(OC)ccc(-c4ccccc4)n3n2)c1` [Example 11, 3-Methoxy-N-(8-methoxy-5-phenyl-[1,2,4]triazolo[1,5-a]pyridin-2-yl)-benzamide], the Ki in test [1] amounted to 3.71 µM. Further, in test [2], the “Selectivity A1/A2a” value came to 23.4 and the Ki is 0.159 µM.
Regarding `COc1ccc(-c2cccs2)n2nc(NC(=O)c3ccccc3)nc12` [Example 12, N-(8-Methoxy-5-thiophen-2-yl-[1,2,4]triazolo[1,5-a]pyridin-2-yl)-benzamide], in test [1], the Ki was 2.15 µM. Further, in test [2], the “Selectivity A1/A2a” value stood at 19.3 and the Ki was found to be 0.112 µM.
For `COc1ccc(-c2cccs2)n2nc(NC(=O)c3ccccc3Cl)nc12` [Example 13, 2-Chloro-N-(8-methoxy-5-thiophen-2-yl-[1,2,4]triazolo[1,5-a]pyridin-2-yl)-benzamide] the same measures were 2.25 µM, 9.8 and 0.23 µM.
Regarding `COc1ccc(-c2cccs2)n2nc(NC(=O)c3cccc(Cl)c3)nc12` [Example 14, 3-Chloro-N-(8-methoxy-5-thiophen-2-yl-[1,2,4]triazolo[1,5-a]pyridin-2-yl)-benzamide], the Ki was found to be 2.48 µM in test [1] and 0.142 µM in test [2]. Moreover, in test [2], the “Selectivity A1/A2a” value came out at 17.4.
Consider `COc1ccc(-c2cccs2)n2nc(NC(=O)c3ccc(Cl)cc3)nc12` [Example 15, 4-Chloro-N-(8-methoxy-5-thiophen-2-yl-[1,2,4]triazolo[1,5-a]pyridin-2-yl)-benzamide], for which the Ki in test [1] was determined as 2.91 µM. Also, in test [2], the “Selectivity A1/A2a” value turned out to be 25.6 and the Ki came to 0.114 µM.
For `COc1ccc(C(=O)Nc2nc3c(OC)ccc(-c4cccs4)n3n2)cc1` [Example 16, 4-Methoxy-N-(8-methoxy-5-thiophen-2-yl-[1,2,4]triazolo[1,5-a]pyridin-2-yl)-benzamide], the Ki in test [1] is 3.38 µM. In addition, in test [2], the “Selectivity A1/A2a” value stood at 14.2 and the Ki was found to be 0.238 µM.
For `COc1ccc(-c2cccs2)n2nc(NC(=O)c3ccccc3Br)nc12` [Example 17, 2-Bromo-N-(8-methoxy-5-thiophen-2-yl-[1,2,4]triazolo[1,5-a]pyridin-2-yl)-benzamide], in that order: 2.49 µM, 12.0 and 0.208 µM.
For `CCc1ccc(C(=O)Nc2nc3c(OC)ccc(-c4cccs4)n3n2)cc1` [Example 18, 4-Ethyl-N-(8-methoxy-5-thiophen-2-yl-[1,2,4]triazolo[1,5-a]pyridin-2-yl)-benzamide], in that order: 3.3 µM, 24.2 and 0.136 µM.
For `COc1cccc(C(=O)Nc2nc3c(OC)ccc(-c4cccs4)n3n2)c1` [Example 19, 3-Methoxy-N-(8-methoxy-5-thiophen-2-yl-[1,2,4]triazolo[1,5-a]pyridin-2-yl)-benzamide] the same measures were 4.94 µM, 24.6 and 0.201 µM.
In the case of `COc1ccc(-c2cccs2)n2nc(NC(=O)c3cccc(CCl)c3)nc12` [Example 20, 3-Chloromethyl-N-(8-methoxy-5-thiophen-2-yl-[1,2,4]triazolo[1,5-a]pyridin-2-yl)-benzamide], the Ki in test [1] amounted to 3.3 µM. Moreover, in test [2], the “Selectivity A1/A2a” value is 15.9 and the Ki was 0.208 µM.
For `COc1ccc(-c2ccccc2)n2nc(NC(=O)c3ccc(C)s3)nc12` [Example 23, 5-Methyl-thiophene-2-carboxylic acid(8-methoxy-5-phenyl-[1,2,4]triazolo[1,5-a]pyridin-2-yl)-amide] the same measures were 2.83 µM, 43.4 and 0.0651 µM.
For the compound `COc1ccc(-c2ccccc2F)n2nc(NC(=O)c3ccc(C)s3)nc12` [Example 24, 5-Methyl-thiophene-2-carboxylic acid [5-(2-fluoro-phenyl)-8-methoxy-[1,2,4]triazolo[1,5-a]pyridin-2-yl]-amide], the Ki in test [1] was found to be 2.61 µM. In test [2], the “Selectivity A1/A2a” value is on record as 19.5 and the Ki turned out to be 0.134 µM.
Consider `COc1ccc(-c2cccc(Cl)c2)n2nc(NC(=O)c3ccc(C)s3)nc12` [Example 25, 5-Methyl-thiophene-2-carboxylic acid [5-(3-chloro-phenyl)-8-methoxy-[1,2,4]triazolo[1,5-a]pyridin-2-yl]-amide], for which the Ki in test [1] was determined as 2.09 µM. Besides, in test [2], the “Selectivity A1/A2a” value is given as 12.7 and the Ki worked out at 0.165 µM.
As to `COc1ccc(-c2ccc(Cl)cc2)n2nc(NC(=O)c3ccc(C)s3)nc12` [Example 26, 5-Methyl-thiophene-2-carboxylic acid [5-(4-chloro-phenyl)-8-methoxy-[1,2,4]triazolo[1,5-a]pyridin-2-yl]-amide], the Ki in test [1] worked out at 2.86 µM; in test [2], 0.256 µM. Besides, the “Selectivity A1/A2a” value in test [2] is recorded as 11.1.
For `COc1cccc(-c2ccc(OC)c3nc(NC(=O)c4ccc(C)s4)nn23)c1` [Example 27, 5-Methyl-thiophene-2-carboxylic acid [8-methoxy-5-(3-methoxy-phenyl)-[1,2,4]triazolo[1,5-a]pyridin-2-yl]-amide], in that order: 1.76 µM, 0.107 µM and 16.5.
With `COc1ccc(-c2ccc(OC)c3nc(NC(=O)c4ccc(C)s4)nn23)cc1` [Example 28, 5-Methyl-thiophene-2-carboxylic acid [8-methoxy-5-(4-methoxy-phenyl) [1,2,4]triazolo[1,5-a]pyridin-2-yl]-amide], the Ki in test [1] came out at 5.21 µM; in test [2] it was 0.143 µM. Also, in test [2], the “Selectivity A1/A2a” value is on record as 36.5.
